This passage reports IC50 and EC50 results from US10669272B2, “Substituted naphthyridinone compounds useful as T cell activators” (BRISTOL-MYERS SQUIBB COMPANY, priority 2018, dated 2020).

Where two headings read alike, the source gives them in different places.

The target of one assay is T1, human DGKζ (Homo sapiens, UniProt Q13574).
T1 construct: TVMV protease cleavage site (C); Hexa-His (C); made in house; host or cells: Sf9 insect cells (baculovirus, Bac-to-Bac)
Kind of assay: DGKζ LIPGLO assay (extruded liposome substrate), in vitro DGK inhibition. As to conditions: liposome (LIPGLO) assay; read-out: DGKz LIPGLO IC50. It counts as biochemical.

The next assay concerns the target T2, human DGKα (Homo sapiens, UniProt P23743).
T2 construct: TVMV protease cleavage site (C); Hexa-His (C); made in house; host or cells: Sf9 insect cells (baculovirus, Bac-to-Bac)
In words: DGKα LIPGLO assay (extruded liposome substrate), in vitro DGK inhibition. As to conditions: liposome (LIPGLO) assay; read-out: DGKa LIPGLO IC50. It is filed as biochemical.

The test system of the next assay is Human venous whole blood. Kind of assay: Human whole blood IFN-γ assay.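 Also: blood from healthy donors exposed to compound for 1 h before stimulation with anti-CD3 and anti-CD28 at 1 µg/mL each, IFN-γ quantified in supernatant by AlphaLISA.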 It counts as cell-based. As to conditions: human whole blood, normalized to 3 μM reference compound with anti-CD3 plus anti-CD28 as 100% activation, read-out: INFg Whole Blood Normalized Agonist EC50.

T2 sequence (P23743 with tags, fused parts or gaps): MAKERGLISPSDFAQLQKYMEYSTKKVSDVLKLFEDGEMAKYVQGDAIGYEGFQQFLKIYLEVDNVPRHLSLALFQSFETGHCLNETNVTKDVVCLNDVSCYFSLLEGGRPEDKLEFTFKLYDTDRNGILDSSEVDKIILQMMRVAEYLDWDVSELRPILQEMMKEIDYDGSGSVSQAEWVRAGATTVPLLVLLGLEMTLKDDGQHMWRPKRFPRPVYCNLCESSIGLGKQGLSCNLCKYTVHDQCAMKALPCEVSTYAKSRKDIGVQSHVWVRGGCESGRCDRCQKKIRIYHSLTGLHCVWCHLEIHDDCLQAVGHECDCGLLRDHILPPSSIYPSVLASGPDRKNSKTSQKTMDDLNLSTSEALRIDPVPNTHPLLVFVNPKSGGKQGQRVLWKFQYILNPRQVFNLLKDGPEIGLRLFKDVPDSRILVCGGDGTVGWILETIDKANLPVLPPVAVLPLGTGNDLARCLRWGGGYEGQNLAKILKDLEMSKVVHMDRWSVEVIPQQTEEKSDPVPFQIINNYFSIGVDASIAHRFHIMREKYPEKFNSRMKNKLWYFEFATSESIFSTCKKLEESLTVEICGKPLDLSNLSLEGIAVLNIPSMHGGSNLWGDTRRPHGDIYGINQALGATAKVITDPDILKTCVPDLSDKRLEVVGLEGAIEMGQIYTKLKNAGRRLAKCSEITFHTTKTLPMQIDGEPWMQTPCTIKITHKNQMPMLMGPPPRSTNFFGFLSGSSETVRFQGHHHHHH
T1 sequence (Q13574 with tags, fused parts or gaps isoform Q13574-4): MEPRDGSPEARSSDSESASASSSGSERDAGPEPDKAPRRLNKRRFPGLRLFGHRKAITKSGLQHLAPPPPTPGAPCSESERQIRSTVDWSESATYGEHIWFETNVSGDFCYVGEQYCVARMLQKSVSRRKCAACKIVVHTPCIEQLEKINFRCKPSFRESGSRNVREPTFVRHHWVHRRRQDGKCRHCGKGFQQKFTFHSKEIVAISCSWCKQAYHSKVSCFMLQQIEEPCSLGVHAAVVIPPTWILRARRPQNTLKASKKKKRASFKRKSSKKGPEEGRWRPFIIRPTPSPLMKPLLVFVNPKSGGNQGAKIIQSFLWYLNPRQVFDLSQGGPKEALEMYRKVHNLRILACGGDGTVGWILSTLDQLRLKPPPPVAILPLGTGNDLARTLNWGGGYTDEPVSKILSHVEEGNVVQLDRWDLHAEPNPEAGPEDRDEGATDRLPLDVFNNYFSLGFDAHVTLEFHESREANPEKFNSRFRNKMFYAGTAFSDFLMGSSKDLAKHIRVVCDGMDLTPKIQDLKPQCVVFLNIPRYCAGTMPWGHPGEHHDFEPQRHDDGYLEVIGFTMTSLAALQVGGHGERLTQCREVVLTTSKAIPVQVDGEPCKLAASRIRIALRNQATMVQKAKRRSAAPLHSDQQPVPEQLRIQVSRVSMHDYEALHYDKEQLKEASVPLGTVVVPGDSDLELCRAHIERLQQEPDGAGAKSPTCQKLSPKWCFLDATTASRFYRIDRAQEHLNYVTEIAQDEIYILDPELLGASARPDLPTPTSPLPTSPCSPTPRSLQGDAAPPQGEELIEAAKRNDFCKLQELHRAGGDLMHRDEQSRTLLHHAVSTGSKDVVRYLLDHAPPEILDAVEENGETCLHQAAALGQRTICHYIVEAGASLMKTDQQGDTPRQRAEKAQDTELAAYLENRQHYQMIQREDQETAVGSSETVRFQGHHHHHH
Protocol for Human venous whole blood: Human Whole Blood IFN-γ Assay
Human venous whole blood (22.5 μL per well), obtained from healthy donors, was pre-treated with compounds for one hour at 37° C. in a humidified 95% air/5% CO2 incubator. The blood was stimulated with 2.5 μL anti-human CD3 and anti-CD28 mAb at a final concentration of 1 μg/mL each for 24 hours at 37° C. IFN-γ in the supernatants was measured using AlphLISA kit (Cat # AL217).

With `CC[C@@H]1CN(c2cc(=O)n(C)c3ccc(C#N)nc23)[C@@H](C)CN1C(c1ccc(F)cc1)c1ccc(C(F)(F)F)cn1` (single isomer, unassigned) [Example 1107], the figures for the IC50 at human DGKζ and on human DGKα were 130 nM and 65 nM, respectively. In the assay with Human venous whole blood, the EC50 turned out to be 77 nM.
With `CC[C@@H]1CN(c2cc(=O)n(C)c3ccc(C#N)nc23)[C@@H](C)CN1C(c1cccc(F)c1)c1ccc(F)cn1` (single isomer, unassigned) [Example 1109], the IC50 at human DGKζ is 470 nM; on human DGKα, 730 nM. Besides, in the assay with Human venous whole blood (Homo sapiens, 24 h), the EC50 amounted to 920 nM.
For the compound `CC[C@@H]1CN(c2cc(=O)n(C)c3ccc(C#N)nc23)[C@@H](C)CN1C(c1ccc(F)cc1)c1ccon1` (single isomer, unassigned) [Example 1114], the IC50 stood at 400 nM on human DGKζ and 56 nM at human DGKα. Besides, in the assay with Human venous whole blood, the EC50 was 100 nM.
`CC[C@@H]1CN(c2cc(=O)n(C)c3ccc(C#N)nc23)[C@@H](C)CN1C(c1ccc(F)cc1)c1ccon1` (single isomer, unassigned) [Example 1115]: the IC50 came out at 1400 nM on human DGKζ and 84 nM at human DGKα. Further, the EC50 in the assay on Human venous whole blood was 800 nM.
The matching figures for `CC[C@H]1CN(C(c2cccc(F)c2)c2ccc(C)cn2)[C@H](C)CN1c1cc(=O)n(C)c2ccc(C#N)nc12` (single isomer, unassigned) [Example 1125]: 1500 nM, 360 nM and 170 nM.
For `CC[C@H]1CN(C(c2cccc(F)c2)c2ccc(C)cn2)[C@H](C)CN1c1cc(=O)n(C)c2ccc(C#N)nc12` (single isomer, unassigned) [Example 1126] the same measures were 3000 nM, 1200 nM and 950 nM.
Turning to `CC[C@H]1CN(C(c2ccc(Cl)cc2)c2ccc(F)cn2)[C@H](C)CN1c1cc(=O)n(C)c2ccc(C#N)nc12` (single isomer, unassigned) [Example 1129], the IC50 was found to be 1800 nM at human DGKζ and 110 nM on human DGKα. Further, the EC50 in the assay on Human venous whole blood (Homo sapiens, 24 h) turned out to be 410 nM.
As to `CC[C@H]1CN(C(c2ccc(Cl)cc2)c2ccc(F)cn2)[C@H](C)CN1c1cc(=O)n(C)c2ccc(C#N)nc12` (single isomer, unassigned) [Example 1130], the figures for the IC50 on human DGKζ and at human DGKα were 430 nM and 170 nM, respectively. For the same compound, in the assay with Human venous whole blood, the EC50 was 280 nM.
The matching figures for `CC[C@H]1CN(C(c2ccc(F)cc2)c2ccc(C(F)(F)F)cn2)[C@H](C)CN1c1cc(=O)n(C)c2ccc(C#N)nc12` (single isomer, unassigned) [Example 1131]: 180 nM, 73 nM and 430 nM.
For `CC[C@H]1CN(C(c2ccc(F)cc2)c2ccc(C(F)(F)F)cn2)[C@H](C)CN1c1cc(=O)n(C)c2ccc(C#N)nc12` (single isomer, unassigned) [Example 1132] the same measures were 790 nM, 620 nM and 1600 nM.
On to `CC[C@H]1CN(C(c2ccc(F)cc2)c2cccc(C(F)(F)F)n2)[C@H](C)CN1c1cc(=O)n(C)c2ccc(C#N)nc12` (single isomer, unassigned) [Example 1133], for which the IC50 came out at 130 nM at human DGKζ and 1600 nM at human DGKα. Also, the EC50 with Human venous whole blood (Homo sapiens, 24 h) is 570 nM.
Consider `CC[C@H]1CN(C(c2ccc(F)cc2)c2cccc(C(F)(F)F)n2)[C@H](C)CN1c1cc(=O)n(C)c2ccc(C#N)nc12` (single isomer, unassigned) [Example 1134], for which the figures for the IC50 at human DGKζ and at human DGKα were 130 nM and 360 nM, respectively. The EC50 in the assay on Human venous whole blood was 340 nM.
As for `CC[C@H]1CN(C(C)c2ccc(F)cc2)[C@H](C)CN1c1cc(=O)n(C)c2ccc(C#N)nc12` (single isomer, unassigned) [Example 1136], the IC50 worked out at 11000 nM at human DGKζ and 1100 nM on human DGKα. The EC50 in the assay on Human venous whole blood turned out to be 2300 nM.
For `CC[C@H]1CN(C(C)c2ccc(F)cc2F)[C@H](C)CN1c1cc(=O)n(C)c2ccc(C#N)nc12` (single isomer, unassigned) [Example 1137], the IC50 at human DGKζ came out at 45 nM; at human DGKα, 26 nM. In addition, the EC50 in the assay on Human venous whole blood worked out at 290 nM.
As to `CC[C@H]1CN(C(C)c2ccc(F)cc2F)[C@H](C)CN1c1cc(=O)n(C)c2ccc(C#N)nc12` (single isomer, unassigned) [Example 1138], the results for the IC50 on human DGKζ and at human DGKα were 1400 nM and 980 nM, respectively. In addition, the EC50 in the assay on Human venous whole blood is 3700 nM.
For the compound `CC[C@H]1CN(C(C)c2ccc(F)c(F)c2)[C@H](C)CN1c1cc(=O)n(C)c2ccc(C#N)nc12` (single isomer, unassigned) [Example 1139], the results for the IC50 at human DGKζ and on human DGKα were 100 nM and 64 nM, respectively. Besides, the EC50 with Human venous whole blood is 1100 nM.
With `CC[C@H]1CN(C(C)c2ccc(F)c(F)c2)[C@H](C)CN1c1cc(=O)n(C)c2ccc(C#N)nc12` (single isomer, unassigned) [Example 1140], the IC50 at human DGKζ came out at 990 nM; on human DGKα, 1600 nM. The EC50 in the assay on Human venous whole blood was 3400 nM.
For `CC[C@H]1CN(C(C)c2ccc(OC(F)(F)F)cc2)[C@H](C)CN1c1cc(=O)n(C)c2ccc(C#N)nc12` (single isomer, unassigned) [Example 1141] the same measures were 370 nM, 8.3 nM and 470 nM.
Regarding `CC[C@H]1CN(C(C)c2ccc(OC(F)(F)F)cc2)[C@H](C)CN1c1cc(=O)n(C)c2ccc(C#N)nc12` (single isomer, unassigned) [Example 1142], the IC50 on human DGKζ was found to be 1600 nM; on human DGKα, 700 nM. Besides, the EC50 in the assay with Human venous whole blood amounted to 1200 nM.
As for `CC[C@H]1CN(C(C)c2ccc(C(F)(F)F)cc2)[C@H](C)CN1c1cc(=O)n(C)c2ccc(C#N)nc12` (single isomer, unassigned) [Example 1143], the results for the IC50 at human DGKζ and at human DGKα were 13000 nM and 1400 nM, respectively. Further, the concentration giving a half-maximal response (EC50) in the assay with Human venous whole blood was 4000 nM.
As to `CC[C@H]1CN(C(C)c2ccc(C(F)(F)F)cc2)[C@H](C)CN1c1cc(=O)n(C)c2ccc(C#N)nc12` (single isomer, unassigned) [Example 1144], the IC50 on human DGKζ was found to be 1500 nM; on human DGKα, 260 nM. The EC50 in the assay with Human venous whole blood amounted to 250 nM.
The matching figures for `CC[C@H]1CN(C(C)c2ccc(OC(F)F)cc2)[C@H](C)CN1c1cc(=O)n(C)c2ccc(C#N)nc12` (single isomer, unassigned) [Example 1145]: 860 nM, 310 nM and 3300 nM.
On to `COC[C@@H]1CN(c2cc(=O)n(C)c3ccc(C#N)nc23)[C@@H](C)CN1C(c1ccc(F)cc1)c1ccc(C#N)cc1` (single isomer, unassigned) [Example 1157], for which the IC50 at human DGKζ was 700 nM; at human DGKα, 4200 nM. In addition, the EC50 with Human venous whole blood (Homo sapiens, 24 h) amounted to 270 nM.
As to `COC[C@@H]1CN(c2cc(=O)n(C)c3ccc(C#N)nc23)[C@@H](C)CN1C(c1ccc(F)cc1)c1ccc(C#N)cc1` (single isomer, unassigned) [Example 1158], the IC50 worked out at 1300 nM at human DGKζ and 6500 nM at human DGKα. For the same compound, the EC50 in the assay with Human venous whole blood stood at 350 nM.
On to `COC[C@@H]1CN(c2cc(=O)n(C)c3ccc(C#N)nc23)[C@@H](C)CN1C(C)c1ccc(F)cc1` (single isomer, unassigned) [Example 1159], for which the IC50 was 130 nM on human DGKζ and 360 nM on human DGKα. In addition, the EC50 in the assay on Human venous whole blood (Homo sapiens, 24 h) came to 300 nM.
Consider `COC[C@@H]1CN(c2cc(=O)n(C)c3ccc(C#N)nc23)[C@@H](C)CN1C(C)c1ccc(F)cc1` (single isomer, unassigned) [Example 1160], for which the IC50 at human DGKζ stood at 1700 nM; at human DGKα it was 1500 nM. In the assay on Human venous whole blood (Homo sapiens, 24 h), the EC50 stood at 1100 nM.
Turning to `CC[C@H]1CN(C(c2ccc(F)cc2)c2ccc(C#N)cc2)[C@H](COC)CN1c1cc(=O)n(C)c2ccc(C#N)nc12` (single isomer, unassigned) [Example 1170], the IC50 worked out at 170 nM on human DGKζ and 760 nM on human DGKα. For the same compound, the EC50 in the assay with Human venous whole blood (Homo sapiens, 24 h) came to 230 nM.
Turning to `CC[C@H]1CN(C(c2ccc(F)cc2)c2ccc(C#N)cc2)[C@H](COC)CN1c1cc(=O)n(C)c2ccc(C#N)nc12` (single isomer, unassigned) [Example 1171], the IC50 on human DGKζ turned out to be 350 nM; at human DGKα, 1500 nM. In addition, in the assay on Human venous whole blood, the EC50 came to 170 nM.
On to `C[C@@H]1CN(C(c2ccc(F)cc2)c2ccc(Cl)cc2)[C@@H](CO)CN1c1cc(=O)n(C)c2ccc(C#N)nc12` (single isomer, unassigned) [Example 1174], for which the IC50 at human DGKζ is 430 nM; on human DGKα it was 11000 nM. In addition, the EC50 in the assay with Human venous whole blood (Homo sapiens, 24 h) turned out to be 1400 nM.
In the case of `CC(c1ccc(F)cc1)N1C[C@@H](C)N(c2cc(=O)n(C)c3ccc(C#N)nc23)C[C@@H]1CO` (single isomer, unassigned) [Example 1178], the figures for the IC50 at human DGKζ and on human DGKα were 720 nM and 43000 nM, respectively. In addition, the EC50 in the assay on Human venous whole blood is 3100 nM.
The matching figures for `CC(c1ccc(F)cc1)N1C[C@@H](C)N(c2cc(=O)n(C)c3ccc(C#N)nc23)C[C@@H]1CO` (single isomer, unassigned) [Example 1179]: 850 nM, greater than 250000 nM and 20000 nM.
As to `Cn1c(=O)cc(N2CCN(Cc3ccc(F)cc3Cl)C(COC(F)F)C2)c2nc(C#N)ccc21` (single isomer, unassigned) [Example 1185, 8-(4-(2-chloro-4-fluorobenzyl)-3-((difluoromethoxy)methyl)piperazin-1-yl)-5-methyl-6-oxo-5,6-dihydro-1,5-naphthyridine-2-carbonitrile], the IC50 at human DGKζ amounted to 2400 nM; on human DGKα, 81000 nM. In addition, the EC50 in the assay with Human venous whole blood (Homo sapiens, 24 h) turned out to be 4300 nM.
Take `C[C@@H]1CN(c2cc(=O)n(C)c3ccc(C#N)nc23)[C@@H](C)CN1C(COC(F)F)c1ccc(F)cc1` (single isomer, unassigned) [Example 1189]: the concentration for half-maximal inhibition (IC50) at human DGKζ came out at 2600 nM; at human DGKα it was 810 nM. The EC50 in the assay on Human venous whole blood (Homo sapiens, 24 h) was 1200 nM.
